Laboratory results as given in patent EP0303243A2, “Use of atrial natriuretic factor (ANF), fragments and analogues thereof, for the treatment of cardiac disorders” (HOECHST AKTIENGESELLSCHAFT, priority 1987, dated 1989).
Non-standard residues stand in square brackets, D forms with d. Residues, ends and D or L forms follow the SMILES beside them.

System: isolierten arbeitenden Rattenherzen
Assay: Isolated working rat heart (Langendorff) with coronary occlusion (ischaemia) and reperfusion
Parameters: species or system Ratten
Settings: 10^-7 mol/l; for Myokardiale Gewebsspiegel von ATP / Myokardiale Gewebsspiegel von Glykogen / Myokardiale Gewebsspiegel von KP / Myokardiale Gewebsspiegel von Laktat: ischaemic hearts perfused for 65 Minuten; for KK / LDH / Laktat: coronary venous effluent
Text: Die erfindungsgemäßen Verbindungen verbessern arrhythmische Zustände, die Hämodynamik und den Stoffwechsel des Herzens. Ihre Wirkung wurde an Ratten im Test nach Langendorff geprüft (0. Langendorff "Untersuchungen am überlebenden Säugetierherzen", Pflügers Archiv […], Bd. 61, 291 - 332; H. Bardenheuer, J. Schrader "Relationships between myocardial oxygen consumption, coronary flow and adenosin release in an improved isolated working heart preparation of guinea pigs", Circulation Research, 1983, Bd. 51, 263 - 271
Die Koronargefäße der isolierten arbeitenden Rattenherzen wurden retrograd über die Aorta mit Krebs-Henseleit-Lösung perfundiert. In den linken Ventrikel wurde ein Ballon verbracht, der mit einem künstlichen "systemischen" Kreislauf verbunden war. Die Druck-Volumenarbeit wurde erreicht, indem aus dem Ballon in den systemischen Kreislauf Kochsalzlösung gepumpt wurde. Die Herzen wurden mit einem Druck von 65 mmHg perfundiert, die Nachlast betrug ebenfalls 65 mmHg und die Vorlast 7,4 mmHg. In einer Kontrollperfusionsperiode wurden die Herzen über 20 Minuten perfundiert. Danach wurde die linke Koronararterie in der Nähe ihres Austritts aus der Aorta mit einem Clip verschlossen. Nach 15 Minuten (ischämische Periode) wurde der Verschluß geöffnet und es schloß sich eine 30 minütige Reperfusionsphase an. Während dieses experimentellen Zeitverlaufs untersuchten wir die Effekte des ANF auf kardiodynamische Parameter, wie linker Ventrikeldruck (LVD), dp/dt max, Herzfrequenz (HF), Koronarfluß (KorF), myokardialer Sauerstoffverbrauch (MSV), auf Enzyme im koronarvenösen Effluat wie Laktat dehydrogenase (LDH) und Kreatinkinase (KK) sowie Laktat, auf metabolische Parameter im Myokard wie Laktat, Glykogen, Adenosintriphosphat (ATP) und Kreatinphosphat (KP) und auf Reperfusionsarrhythmien mittels EKG.
Eine Substanz wird dann als wirksam bezeichnet, wenn nach dem Abklemmen der linken Herzkoronararterie und anschließender Reperfusion keine Arrhythmien - im Vergleich zur unbehandelten Kontrolle - entstehen, wobei das Kammerflimmern (KF) einen meßbaren Parameter darstellt.
Die erfindungsgemäßen Verbindungen wurden in den entsprechenden Konzentrationen vor und nach Okklusion der linken Koronararterie perfundiert (n:10); (n:4). Kontrollherzen wurden mit Krebs-Henseleit-Lösung perfundiert (n:10).

Compound | Myokardiale Gewebsspiegel von ATP | Myokardiale Gewebsspiegel von Glykogen | Myokardiale Gewebsspiegel von KP | Myokardiale Gewebsspiegel von Laktat | HF (Ischämische Periode) [Schläge/Min] | KorF (Ischämische Periode) | LVD (Ischämische Periode) | LVdp/dtmax (Ischämische Periode) | HF (Kontrollperfusionsperiode) [Schläge/Min] | KorF (Kontrollperfusionsperiode) | LVD (Kontrollperfusionsperiode) | LVdp/dtmax (Kontrollperfusionsperiode) | HF (Reperfusionsperiode) [Schläge/Min] | KorF (Reperfusionsperiode) | LVD (Reperfusionsperiode) | LVdp/dtmax (Reperfusionsperiode) | KK (Ischämische Periode) | LDH (Ischämische Periode) | Laktat (Ischämische Periode) | KK (Kontrollperfusionsperiode) [mU/min/g] | further results
CC[C@H](C)[C@@H]1NC(=O)[C@H](CCCNC(=N)N)NC(=O)[C@@H](CC(C)C)NC(=O)[C@H]([C@@H](C)CC)NC(=O)[C@@H](CCCNC(=N)N)NC1=O [cyclo-(D-Arg-Ile-D-Leu-Arg-Ile)] (cyclo(I[dL]RI[dR])) | * 13,25 ± 0,41 µmol/g Trockengewicht | * 121,09 ± 2,97 µmol/g Trockengewicht | * 15,22 ± 0,83 µmol/g Trockengewicht | * 3,87 ± 0,46 µmol/g Trockengewicht | 299 ± 7 | * 8,7 ± 0,4 ml/Min/g | * 49 ± 4 mmHg | * 1784 ± 109 mmHg • sec^-1 | 306 ± 7 | 12,3 ± 0,8 ml/Min/g | 68 ± 3 mmHg | 2589 ± 101 mmHg • sec^-1 | 284 ± 10 | * 12,9 ± 0,9 ml/Min/g | 48 ± 6 mmHg | 1724 ± 111 mmHg • sec^-1 | * 32 ± 5 mU/min/g | * 22 ± 4 mU/min/g | * 0,24 ± 0,03 µmol/min/g | 32 ± 4 | LDH (Kontrollperfusionsperiode): 29 ± 5 mU/min/g; Laktat (Kontrollperfusionsperiode): * 0,18 ± 0,04 µmol/min/g; KK (Reperfusionsperiode): * 20 ± 4 mU/min/g; LDH (Reperfusionsperiode): * 14 ± 3 mU/min/g; Laktat (Reperfusionsperiode): * 0,16 ± 0,05 µmol/min/g
human ANF-(103-126) [h-ANF(103-126)] | * 11,01 ± 0,59 µmol/g Trockengewicht | * 113,15 ± 3,74 µmol/g Trockengewicht | * 13,89 ± 0,99 µmol/g Trockengewicht | * 4,03 ± 0,62 µmol/g Trockengewicht | 301 ± 5 | * 9,0 ± 0,2 ml/Min/g | * 45 ± 3 mmHg | * 1663 ± 117 mmHg • sec^-1 | 298 ± 4 | 11,1 ± 0,2 ml/Min/g | * 55 ± 2 mmHg | * 2125 ± 91 mmHg • sec^-1 | 280 ± 4 | * 11,7 ± 0,3 ml/Min/g | * 37 ± 2 mmHg | * 1385 ± 91 mmHg • sec^-1 | * 30 ± 2 mU/min/g | * 20 ± 2 mU/min/g | * 0,18 ± 0,01 µmol/min/g | 28 ± 3 | MSV (Ischämische Periode): * 11,5 ± 0,3 ml/min/100 g; MSV (Kontrollperfusionsperiode): * 14,5 ± 0,3 ml/min/100 g; MSV (Reperfusionsperiode): 14,7 ± 0,4 ml/min/100 g; LDH (Kontrollperfusionsperiode): 21 ± 2 mU/min/g; Laktat (Kontrollperfusionsperiode): * 0,13 ± 0,01 µmol/min/g; KK (Reperfusionsperiode): * 18 ± 2 mU/min/g; LDH (Reperfusionsperiode): * 12 ± 1 mU/min/g; Laktat (Reperfusionsperiode): * 0,12 ± 0,04 µmol/min/g; KF (ventricular fibrillation (Kammerflimmern), Reperfusionsperiode): * 2,7 ± 0,9 Min
